Experimental data published in US7750003B2, “Compounds-943” (AstraZeneca AB, priority 2006, dated 2010).

molecular target: recombinant mTOR (FLAG-tagged, residues 1362-2549) (Homo sapiens, UniProt P42345); test: In vitro mTOR kinase assay (Test (a), AlphaScreen); assay type: biochemical; conditions: ATP 20 μM, read-out: Test (a): IC50 versus mTOR kinase
Procedure, shortened: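 AlphaScreen read-out: a phospho-T389 p70 S6K antibody on acceptor beads captures the phosphorylated biotin-peptide on donor beads, with signal loss indicating inhibition.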

Chain of recombinant mTOR (FLAG-tagged, residues 1362-2549) (P42345 1362-2549): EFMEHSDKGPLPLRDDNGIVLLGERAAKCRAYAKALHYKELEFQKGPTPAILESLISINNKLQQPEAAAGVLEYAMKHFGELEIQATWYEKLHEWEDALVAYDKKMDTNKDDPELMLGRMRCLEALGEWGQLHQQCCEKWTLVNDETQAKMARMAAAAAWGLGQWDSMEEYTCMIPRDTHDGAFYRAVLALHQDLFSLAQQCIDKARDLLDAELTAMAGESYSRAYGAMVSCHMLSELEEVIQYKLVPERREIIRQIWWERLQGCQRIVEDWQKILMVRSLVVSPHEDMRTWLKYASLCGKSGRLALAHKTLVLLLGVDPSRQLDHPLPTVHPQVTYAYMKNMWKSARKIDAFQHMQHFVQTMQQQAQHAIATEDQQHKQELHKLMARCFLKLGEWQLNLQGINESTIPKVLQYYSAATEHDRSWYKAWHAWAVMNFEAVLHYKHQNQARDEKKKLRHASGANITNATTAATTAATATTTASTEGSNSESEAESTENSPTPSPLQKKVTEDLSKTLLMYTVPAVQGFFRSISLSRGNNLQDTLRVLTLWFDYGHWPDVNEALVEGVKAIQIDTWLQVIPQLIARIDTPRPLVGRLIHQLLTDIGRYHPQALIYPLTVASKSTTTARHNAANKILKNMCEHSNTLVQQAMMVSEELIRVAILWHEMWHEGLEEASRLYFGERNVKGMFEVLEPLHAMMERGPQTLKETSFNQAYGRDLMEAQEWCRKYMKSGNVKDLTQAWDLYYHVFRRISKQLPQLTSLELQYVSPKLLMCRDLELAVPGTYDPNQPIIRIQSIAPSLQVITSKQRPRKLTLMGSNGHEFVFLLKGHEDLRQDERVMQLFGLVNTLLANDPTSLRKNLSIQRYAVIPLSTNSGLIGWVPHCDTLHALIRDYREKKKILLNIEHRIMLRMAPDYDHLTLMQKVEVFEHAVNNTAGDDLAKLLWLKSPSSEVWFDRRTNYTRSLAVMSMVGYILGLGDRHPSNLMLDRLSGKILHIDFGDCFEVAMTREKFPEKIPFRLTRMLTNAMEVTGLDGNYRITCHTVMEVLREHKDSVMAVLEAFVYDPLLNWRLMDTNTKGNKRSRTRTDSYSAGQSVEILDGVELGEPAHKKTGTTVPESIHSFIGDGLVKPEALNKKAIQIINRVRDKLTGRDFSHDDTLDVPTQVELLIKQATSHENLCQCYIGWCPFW

| Compound | IC50 |
| --- | --- |
| C[C@H]1COCCN1c1cc(CS(C)(=O)=O)nc(-c2ccc(NC(=O)NCc3ccncc3)cc2)n1 [Example 24e, 1-[4-[4-[(3S)-3-methylmorpholin-4-yl]-6-(methylsulfonylmethyl)pyrimidin-2-yl]phenyl]-3-(pyridin-4-ylmethyl)urea] | 810 nM |
| C[C@H]1COCCN1c1cc(CS(C)(=O)=O)nc(-c2ccc(NC(=O)NCc3cnn(C)c3)cc2)n1 [Example 24g, 1-[4-[4-[(3S)-3-methylmorpholin-4-yl]-6-(methylsulfonylmethyl)pyrimidin-2-yl]phenyl]-3-[(1-methylpyrazol-4-yl)methyl]urea] | 310 nM |
| Cc1cc(CNC(=O)Nc2ccc(-c3nc(CS(C)(=O)=O)cc(N4CCOC[C@@H]4C)n3)cc2)no1 [Example 24h, 3-[4-[4-[(3S)-3-methylmorpholin-4-yl]-6-(methylsulfonylmethyl)pyrimidin-2-yl]phenyl]-1-[(5-methyl-1,2-oxazol-3-yl)methyl]urea] | 4400 nM |
| C[C@H]1COCCN1c1cc(CS(C)(=O)=O)nc(-c2ccc(NC(=O)NCc3cccc(N(C)C)c3)cc2)n1 [Example 24i, 3-[(3-dimethylaminophenyl)methyl]-1-[4-[4-[(3S)-3-methylmorpholin-4-yl]-6-(methylsulfonylmethyl)pyrimidin-2-yl]phenyl]urea] | 330 nM |
| C[C@H]1COCCN1c1cc(CS(C)(=O)=O)nc(-c2ccc(NC(=O)NCc3cncs3)cc2)n1 [Example 24j, 1-[4-[4-[(3S)-3-methylmorpholin-4-yl]-6-(methylsulfonylmethyl)pyrimidin-2-yl]phenyl]-3-(1,3-thiazol-5-ylmethyl)urea] | 220 nM |
| CNC(=O)Nc1ccn(-c2nc(CS(C)(=O)=O)cc(N3CCOC[C@@H]3C)n2)n1 [Example 24k, 3-methyl-1-[1-[4-[(3S)-3-methylmorpholin-4-yl]-6-(methylsulfonylmethyl)pyrimidin-2-yl]pyrazol-3-yl]urea] | 180 nM |
| CCNC(=O)Nc1ccn(-c2nc(CS(C)(=O)=O)cc(N3CCOC[C@@H]3C)n2)n1 [Example 24l, 1-ethyl-3-[1-[4-[(3S)-3-methylmorpholin-4-yl]-6-(methylsulfonylmethyl)pyrimidin-2-yl]pyrazol-3-yl]urea] | 840 nM |
| C[C@H]1COCCN1c1cc(CS(C)(=O)=O)nc(-n2ccc(NC(=O)NC3CC3)n2)n1 [Example 24m, 3-cyclopropyl-1-[1-[4-[(3S)-3-methylmorpholin-4-yl]-6-(methylsulfonylmethyl)pyrimidin-2-yl]pyrazol-3-yl]urea] | 650 nM |
| CNC(=O)NC1CCN(c2nc(N3CCOC[C@@H]3C)cc(C(C)(C)S(C)(=O)=O)n2)CC1 [Example 24n, 3-methyl-1-[1-[4-[(3S)-3-methylmorpholin-4-yl]-6-(2-methylsulfonylpropan-2-yl)pyrimidin-2-yl]-4-piperidyl]urea] | 3200 nM |
| CCNC(=O)NC1CCN(c2nc(N3CCOC[C@@H]3C)cc(C(C)(C)S(C)(=O)=O)n2)CC1 [Example 24o, 1-ethyl-3-[1-[4-[(3S)-3-methylmorpholin-4-yl]-6-(2-methylsulfonylpropan-2-yl)pyrimidin-2-yl]-4-piperidyl]urea] | 3400 nM |
| C[C@H]1COCCN1c1cc(C(C)(C)S(C)(=O)=O)nc(N2CCC(NC(=O)NC3CC3)CC2)n1 [Example 24p, 3-cyclopropyl-1-[1-[4-[(3S)-3-methylmorpholin-4-yl]-6-(2-methylsulfonylpropan-2-yl)pyrimidin-2-yl]-4-piperidyl]urea] | 890 nM |
| C[C@H]1COCCN1c1cc(C(C)(C)S(C)(=O)=O)nc(N2CCC(NC(=O)NCc3cnn(C)c3)CC2)n1 [Example 24q, 1-[1-[4-[(3S)-3-methylmorpholin-4-yl]-6-(2-methylsulfonylpropan-2-yl)pyrimidin-2-yl]-4-piperidyl]-3-[(1-methylpyrazol-4-yl)methyl]urea] | 5800 nM |
| C[C@H]1COCCN1c1cc(CS(C)(=O)=O)nc(-c2ccc(NC(=O)NC3CC3)nc2)n1 [Example 24r, 3-cyclopropyl-1-[5-[4-[(3S)-3-methylmorpholin-4-yl]-6-(methylsulfonylmethyl)pyrimidin-2-yl]pyridin-2-yl]urea] | 340 nM |
| C[C@H]1COCCN1c1cc(C(C)(C)S(C)(=O)=O)nc(-c2ccc(NC(=O)Nc3ccc(F)cn3)cc2)n1 [Example 24y, 3-(5-fluoropyridin-2-yl)-1-[4-[4-[(3S)-3-methylmorpholin-4-yl]-6-(2-methylsulfonylpropan-2-yl)pyrimidin-2-yl]phenyl]urea] | 2200 nM |
| C[C@H]1COCCN1c1cc(C(C)(C)S(C)(=O)=O)nc(-c2cnc(NC(=O)NCc3cnn(C)c3)nc2)n1 [Example 24z, 1-[5-[4-[(3S)-3-methylmorpholin-4-yl]-6-(2-methylsulfonylpropan-2-yl)pyrimidin-2-yl]pyrimidin-2-yl]-3-[(1-methylpyrazol-4-yl)methyl]urea] | 370 nM |
| C[C@H]1COCCN1c1cc(CS(C)(=O)=O)nc(-n2ccc(NC(=O)Nc3ccccc3)n2)n1 [Example 25, 1-[1-[4-[(3S)-3-Methylmorpholin-4-yl]-6-(methylsulfonylmethyl)pyrimidin-2-yl]pyrazol-3-yl]-3-phenyl-urea] | 1900 nM |
| COc1ccc(NC(=O)Nc2ccn(-c3nc(CS(C)(=O)=O)cc(N4CCOC[C@@H]4C)n3)n2)cc1 [Example 25a, 3-(4-methoxyphenyl)-1-[1-[4-[(3S)-3-methylmorpholin-4-yl]-6-(methylsulfonylmethyl)pyrimidin-2-yl]pyrazol-3-yl]urea] | 4400 nM |
| C[C@H]1COCCN1c1cc(CS(C)(=O)=O)nc(-n2ccc(NC(=O)Nc3ccc(F)cc3)n2)n1 [Example 25b, 3-(4-fluorophenyl)-1-[1-[4-[(3S)-3-methylmorpholin-4-yl]-6-(methylsulfonylmethyl)pyrimidin-2-yl]pyrazol-3-yl]urea] | 4400 nM |
| C[C@H]1COCCN1c1cc(CN2CCOCC2)nc(-c2ccc(NC(=O)Nc3ccccc3)cc2)n1 [Example 27, 1-[4-[4-[(3S)-3-Methylmorpholin-4-yl]-6-(morpholin-4-ylmethyl)pyrimidin-2-yl]phenyl]-3-phenyl-urea] | 190 nM |
| C[C@H]1COCCN1c1cc(COc2ccccc2)nc(-c2ccc(NC(=O)Nc3ccccc3)cc2)n1 [Example 28, 1-[4-[4-[(3S)-3-Methylmorpholin-4-yl]-6-(phenoxymethyl)pyrimidin-2-yl]phenyl]-3-phenyl-urea] | 4700 nM |
| C[C@H]1COCCN1c1cc(CS(=O)(=O)C2CCNC2=O)nc(-c2ccc(NC(=O)Nc3ccccc3)cc2)n1 (stereo partly drawn) [Example 29, 1-[4-[4-[(3S)-3-Methylmorpholin-4-yl]-6-[(2-oxopyrrolidin-3-yl)sulfonylmethyl]pyrimidin-2-yl]phenyl]-3-phenyl-urea] | 560 nM |
| C[C@H]1COCCN1c1cc(CNc2ccccc2)nc(-c2ccc(NC(=O)Nc3ccccc3)cc2)n1 [Example 30, 1-[4-[4-(Anilinomethyl)-6-[(3S)-3-methylmorpholin-4-yl]pyrimidin-2-yl]phenyl]-3-phenyl-urea] | 900 nM |

These reach a lower IC50. Values come first.

| IC50 | Compound |
| --- | --- |
| 4.7 nM | C[C@H]1COCCN1c1cc(C(C)(C)S(C)(=O)=O)nc(-c2ccc(NC(=O)Nc3ccon3)cc2)n1 [Example 24s, 1-[4-[4-[(3S)-3-methylmorpholin-4-yl]-6-(2-methylsulfonylpropan-2-yl)pyrimidin-2-yl]phenyl]-3-(1,2-oxazol-3-yl)urea] |
| 12 nM | Cc1cc(NC(=O)Nc2ccc(-c3nc(N4CCOC[C@@H]4C)cc(C(C)(C)S(C)(=O)=O)n3)cc2)no1 [Example 24t, 3-[4-[4-[(3S)-3-methylmorpholin-4-yl]-6-(2-methylsulfonylpropan-2-yl)pyrimidin-2-yl]phenyl]-1-(5-methyl-1,2-oxazol-3-yl)urea] |
| 120 nM | C[C@H]1COCCN1c1cc(C(C)(C)S(C)(=O)=O)nc(-c2ccc(NC(=O)Nc3ncccn3)cc2)n1 [Example 24u, 1-[4-[4-[(3S)-3-methylmorpholin-4-yl]-6-(2-methylsulfonylpropan-2-yl)pyrimidin-2-yl]phenyl]-3-pyrimidin-2-yl-urea] |
| 55 nM | C[C@H]1COCCN1c1cc(C(C)(C)S(C)(=O)=O)nc(-c2ccc(NC(=O)Nc3cc[nH]n3)cc2)n1 [Example 24v, 1-[4-[4-[(3S)-3-methylmorpholin-4-yl]-6-(2-methylsulfonylpropan-2-yl)pyrimidin-2-yl]phenyl]-3-(1H-pyrazol-3-yl)urea] |
| 34 nM | C[C@H]1COCCN1c1cc(C(C)(C)S(C)(=O)=O)nc(-c2ccc(NC(=O)Nc3ccccc3)cc2)n1 [Example 24w, 1-[4-[4-[(3S)-3-methylmorpholin-4-yl]-6-(2-methylsulfonylpropan-2-yl)pyrimidin-2-yl]phenyl]-3-phenyl-urea] |
| 100 nM | COc1ccc(NC(=O)Nc2ccc(-c3nc(N4CCOC[C@@H]4C)cc(C(C)(C)S(C)(=O)=O)n3)cc2)cn1 [Example 24x, 3-(6-methoxypyridin-3-yl)-1-[4-[4-[(3S)-3-methylmorpholin-4-yl]-6-(2-methylsulfonylpropan-2-yl)pyrimidin-2-yl]phenyl]urea] |
| 29 nM | CNC(=O)CS(=O)(=O)Cc1cc(N2CCOC[C@@H]2C)nc(-c2ccc(NC(=O)NC)cc2)n1 [Example 26, N-Methyl-2-[[2-[4-(methylcarbamoylamino)phenyl]-6-[(3S)-3-methylmorpholin-4-yl]pyrimidin-4-yl]methylsulfonyl]acetamide] |
| 37 nM | CNC(=O)Nc1ccc(-c2nc(CS(=O)(=O)CC(N)=O)cc(N3CCOC[C@@H]3C)n2)cc1 [Example 26a, 2-[[2-[4-(methylcarbamoylamino)phenyl]-6-[(3S)-3-methylmorpholin-4-yl]pyrimidin-4-yl]methylsulfonyl]acetamide] |
| 41 nM | CNC(=O)Nc1ccc(-c2nc(CS(=O)(=O)CCNC(C)=O)cc(N3CCOC[C@@H]3C)n2)cc1 [Example 26b, N-[2-[[2-[4-(methylcarbamoylamino)phenyl]-6-[(3S)-3-methylmorpholin-4-yl]pyrimidin-4-yl]methylsulfonyl]ethyl]acetamide] |
| 120 nM | C[C@H]1COCCN1c1cc(CN2CCN(C)CC2)nc(-c2ccc(NC(=O)Nc3ccccc3)cc2)n1 [Example 30a, 1-[4-[4-[(3S)-3-methylmorpholin-4-yl]-6-[(4-methylpiperazin-1-yl)methyl]pyrimidin-2-yl]phenyl]-3-phenyl-urea] |
